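Where inhibition never reached the appropriate level, the endpoint shown equals the highest concentration tested. Otherwise, values were interpolated linearly from a five-concentration, 48-hour dose response in 96-well plates. TGI marks complete inhibition of growth.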
Tests used:
Experiment in all cases: DTP human tumour cell line panel, 48 h
786-0 renal = tested on: 786-0 renal
A498 renal = tested on: A498 renal
A549 NSCLC = tested on: A549 NSCLC
ACHN renal = tested on: ACHN renal
CAKI-1 renal = tested on: CAKI-1 renal
CCRF-CEM leukemia = tested on: CCRF-CEM leukemia
COLO 205 colon = tested on: COLO 205 colon
DLD-1 colon = tested on: DLD-1 colon
DMS 114 small cell lung = tested on: DMS 114 small cell lung
DMS 273 small cell lung = tested on: DMS 273 small cell lung
EKVX NSCLC = tested on: EKVX NSCLC
HCC-2998 colon = tested on: HCC-2998 colon
HCT-116 colon = tested on: HCT-116 colon
HCT-15 colon = tested on: HCT-15 colon
HL-60(TB) leukemia = tested on: HL-60(TB) leukemia
HOP-62 NSCLC = tested on: HOP-62 NSCLC
HOP-92 NSCLC = tested on: HOP-92 NSCLC
HT29 colon = tested on: HT29 colon
IGROV1 ovarian = tested on: IGROV1 ovarian
K-562 leukemia = tested on: K-562 leukemia
KM12 colon = tested on: KM12 colon
KM20L2 colon = tested on: KM20L2 colon
LOX IMVI melanoma = tested on: LOX IMVI melanoma
LXFL 529 NSCLC = tested on: LXFL 529 NSCLC
M14 melanoma = tested on: M14 melanoma
M19-MEL melanoma = tested on: M19-MEL melanoma
MALME-3M melanoma = tested on: MALME-3M melanoma
MOLT-4 leukemia = tested on: MOLT-4 leukemia
NCI-H226 lung = tested on: NCI-H226 lung
NCI-H23 lung = tested on: NCI-H23 lung
NCI-H460 lung = tested on: NCI-H460 lung
NCI-H522 lung = tested on: NCI-H522 lung
OVCAR-3 ovarian = tested on: OVCAR-3 ovarian
OVCAR-4 ovarian = tested on: OVCAR-4 ovarian
OVCAR-5 ovarian = tested on: OVCAR-5 ovarian
RPMI-8226 leukemia = tested on: RPMI-8226 leukemia
RXF 393 renal = tested on: RXF 393 renal
RXF-631 renal = tested on: RXF-631 renal
SF-268 CNS = tested on: SF-268 CNS
SF-295 CNS = tested on: SF-295 CNS
SF-539 CNS = tested on: SF-539 CNS
SK-MEL-2 melanoma = tested on: SK-MEL-2 melanoma
SK-MEL-28 melanoma = tested on: SK-MEL-28 melanoma
SK-MEL-5 melanoma = tested on: SK-MEL-5 melanoma
SK-OV-3 ovarian = tested on: SK-OV-3 ovarian
SN12C renal = tested on: SN12C renal
SNB-19 CNS = tested on: SNB-19 CNS
SNB-75 CNS = tested on: SNB-75 CNS
SNB-78 CNS = tested on: SNB-78 CNS
SR leukemia = tested on: SR leukemia
SW-620 colon = tested on: SW-620 colon
TK-10 renal = tested on: TK-10 renal
U251 CNS = tested on: U251 CNS
UO-31 renal = tested on: UO-31 renal
XF 498 CNS = tested on: XF 498 CNS
HOP-18 NSCLC = tested on: HOP-18 NSCLC
OVCAR-8 ovarian = tested on: OVCAR-8 ovarian
UACC-257 melanoma = tested on: UACC-257 melanoma
UACC-62 melanoma = tested on: UACC-62 melanoma

**Q.** What does the source list for COC(=O)C1C=CCON2CCc3c(n(C)c4ccccc34)C12 (centres undefined)?
**A.** TGI (786-0 renal): > 100 µM; TGI (A498 renal): > 100 µM; TGI (A549 NSCLC): > 100 µM; TGI (ACHN renal): > 100 µM; TGI (CAKI-1 renal): > 100 µM; TGI (CCRF-CEM leukemia): > 100 µM; TGI (COLO 205 colon): > 100 µM; TGI (DLD-1 colon): > 100 µM; TGI (DMS 114 small cell lung): > 100 µM; TGI (DMS 273 small cell lung): > 100 µM; TGI (EKVX NSCLC): > 100 µM; TGI (HCC-2998 colon): > 100 µM; TGI (HCT-116 colon): > 100 µM; TGI (HCT-15 colon): > 100 µM; TGI (HL-60(TB) leukemia): > 100 µM; TGI (HOP-62 NSCLC): > 100 µM; TGI (HOP-92 NSCLC): > 100 µM; TGI (HT29 colon): > 100 µM; TGI (IGROV1 ovarian): > 100 µM; TGI (K-562 leukemia): > 100 µM; TGI (KM12 colon): > 100 µM; TGI (KM20L2 colon): > 100 µM; TGI (LOX IMVI melanoma): > 100 µM; TGI (LXFL 529 NSCLC): > 100 µM; TGI (M14 melanoma): > 100 µM; TGI (M19-MEL melanoma): > 100 µM; TGI (MALME-3M melanoma): > 100 µM; TGI (MOLT-4 leukemia): > 100 µM; TGI (NCI-H226 lung): > 100 µM; TGI (NCI-H23 lung): > 100 µM; TGI (NCI-H460 lung): > 100 µM; TGI (NCI-H522 lung): > 100 µM; TGI (OVCAR-3 ovarian): > 100 µM; TGI (OVCAR-4 ovarian): > 100 µM; TGI (OVCAR-5 ovarian): > 100 µM; TGI (RPMI-8226 leukemia): > 100 µM; TGI (RXF 393 renal): > 100 µM; TGI (RXF-631 renal): > 100 µM; TGI (SF-268 CNS): > 100 µM; TGI (SF-295 CNS): > 100 µM; TGI (SF-539 CNS): > 100 µM; TGI (SK-MEL-2 melanoma): > 100 µM; TGI (SK-MEL-28 melanoma): > 100 µM; TGI (SK-MEL-5 melanoma): > 100 µM; TGI (SK-OV-3 ovarian): > 100 µM; TGI (SN12C renal): > 100 µM; TGI (SNB-19 CNS): > 100 µM; TGI (SNB-75 CNS): > 100 µM; TGI (SNB-78 CNS): > 100 µM; TGI (SR leukemia): > 100 µM; TGI (SW-620 colon): > 100 µM; TGI (TK-10 renal): > 100 µM; TGI (U251 CNS): > 100 µM; TGI (UO-31 renal): > 100 µM; TGI (XF 498 CNS): > 100 µM

**Q.** Which TGI (786-0 renal) does the source give for Cc1c(CCO)c(=O)n2c([nH]c3ccccc32)c1C#N here?
**A.** The TGI was greater than 100 µM.

**Q.** And the TGI (A498 renal)?
**A.** The TGI was greater than 100 µM.

**Q.** What about the TGI (A549 NSCLC) of the same molecule?
**A.** The TGI was greater than 100 µM.

**Q.** And the TGI (ACHN renal)?
**A.** Its TGI is greater than 100 µM.

**Q.** What about the TGI (CAKI-1 renal) of the same molecule?
**A.** Its TGI is greater than 100 µM.

**Q.** What about the TGI (CCRF-CEM leukemia) of the same molecule?
**A.** The TGI was greater than 100 µM.

**Q.** What about the TGI (COLO 205 colon) of the same molecule?
**A.** Its TGI is greater than 100 µM.

**Q.** What about the TGI (DLD-1 colon) of the same molecule?
**A.** The TGI was greater than 100 µM.

**Q.** And the TGI (DMS 114 small cell lung)?
**A.** The TGI was greater than 100 µM.

**Q.** And the TGI (DMS 273 small cell lung)?
**A.** Its TGI is greater than 100 µM.

**Q.** What about the TGI (EKVX NSCLC) of the same molecule?
**A.** The TGI was greater than 100 µM.

**Q.** What about the TGI (HCC-2998 colon) of the same molecule?
**A.** The TGI was greater than 100 µM.

**Q.** And the TGI (HCT-116 colon)?
**A.** The TGI was greater than 100 µM.

**Q.** And the TGI (HCT-15 colon)?
**A.** Its TGI is greater than 100 µM.

**Q.** And the TGI (HOP-18 NSCLC)?
**A.** Its TGI is greater than 100 µM.

**Q.** And the TGI (HOP-62 NSCLC)?
**A.** The TGI was greater than 100 µM.

**Q.** What about the TGI (HOP-92 NSCLC) of the same molecule?
**A.** The TGI was greater than 100 µM.

**Q.** What about the TGI (HT29 colon) of the same molecule?
**A.** The TGI was greater than 100 µM.

**Q.** And the TGI (IGROV1 ovarian)?
**A.** The TGI was greater than 100 µM.

**Q.** And the TGI (K-562 leukemia)?
**A.** Its TGI is greater than 100 µM.

**Q.** What about the TGI (KM12 colon) of the same molecule?
**A.** Its TGI is greater than 100 µM.

**Q.** What about the TGI (KM20L2 colon) of the same molecule?
**A.** Its TGI is greater than 100 µM.

**Q.** What about the TGI (LOX IMVI melanoma) of the same molecule?
**A.** The TGI was greater than 100 µM.

**Q.** And the TGI (LXFL 529 NSCLC)?
**A.** The TGI was greater than 100 µM.

**Q.** And the TGI (M14 melanoma)?
**A.** The TGI was greater than 100 µM.

**Q.** What about the TGI (M19-MEL melanoma) of the same molecule?
**A.** Its TGI is greater than 100 µM.

**Q.** And the TGI (MALME-3M melanoma)?
**A.** Its TGI is greater than 100 µM.

**Q.** And the TGI (NCI-H226 lung)?
**A.** Its TGI is greater than 100 µM.

**Q.** What about the TGI (NCI-H23 lung) of the same molecule?
**A.** The TGI was greater than 100 µM.

**Q.** What about the TGI (NCI-H460 lung) of the same molecule?
**A.** Its TGI is 98.8 µM.

**Q.** And the TGI (NCI-H522 lung)?
**A.** The TGI was greater than 100 µM.

**Q.** And the TGI (OVCAR-3 ovarian)?
**A.** Its TGI is greater than 100 µM.

**Q.** And the TGI (OVCAR-4 ovarian)?
**A.** The TGI was greater than 100 µM.

**Q.** And the TGI (OVCAR-5 ovarian)?
**A.** Its TGI is greater than 100 µM.

**Q.** And the TGI (OVCAR-8 ovarian)?
**A.** The TGI was greater than 100 µM.

**Q.** And the TGI (RPMI-8226 leukemia)?
**A.** The TGI was greater than 100 µM.

**Q.** And the TGI (RXF 393 renal)?
**A.** The TGI was greater than 100 µM.

**Q.** What about the TGI (SF-268 CNS) of the same molecule?
**A.** The TGI was greater than 100 µM.

**Q.** What about the TGI (SF-295 CNS) of the same molecule?
**A.** The TGI was greater than 100 µM.

**Q.** And the TGI (SF-539 CNS)?
**A.** Its TGI is greater than 100 µM.

**Q.** And the TGI (SK-MEL-2 melanoma)?
**A.** Its TGI is greater than 100 µM.

**Q.** And the TGI (SK-MEL-28 melanoma)?
**A.** Its TGI is greater than 100 µM.

**Q.** What about the TGI (SK-MEL-5 melanoma) of the same molecule?
**A.** The TGI was greater than 100 µM.

**Q.** What about the TGI (SK-OV-3 ovarian) of the same molecule?
**A.** The TGI was greater than 100 µM.

**Q.** And the TGI (SNB-19 CNS)?
**A.** Its TGI is 91.8 µM.

**Q.** What about the TGI (SNB-75 CNS) of the same molecule?
**A.** The TGI was greater than 100 µM.

**Q.** What about the TGI (SNB-78 CNS) of the same molecule?
**A.** The TGI was greater than 100 µM.

**Q.** And the TGI (SW-620 colon)?
**A.** The TGI was greater than 100 µM.

**Q.** What about the TGI (TK-10 renal) of the same molecule?
**A.** The TGI was greater than 100 µM.

**Q.** What about the TGI (U251 CNS) of the same molecule?
**A.** Its TGI is greater than 100 µM.

**Q.** And the TGI (UACC-257 melanoma)?
**A.** The TGI was greater than 100 µM.

**Q.** And the TGI (UACC-62 melanoma)?
**A.** Its TGI is greater than 100 µM.

**Q.** What about the TGI (UO-31 renal) of the same molecule?
**A.** The TGI was greater than 100 µM.

**Q.** What about the TGI (XF 498 CNS) of the same molecule?
**A.** The TGI was greater than 100 µM.
